Assay results from publication PMC3126777, “Selective anticancer activity of a hexapeptide with sequence homology to a non-kinase domain of Cyclin Dependent Kinase 4” (Molecular Cancer, 2011).

What was measured:
[1] = Preliminary pharmacokinetic experiments; assay type: in vivo; conditions: maximum tolerated dose, species not given
[2] = system: RT112 human bladder cancer and H460 human non-small lung cancer cell lines; test: Cell killing by cyclic amphiphilic peptides (viability and clonogenic survival); assay type: cell-based
Text: Attempts to limit proteolysis and improve cell uptake, by incorporating the hexameric peptide sequence into cyclic peptide cassettes were undertaken, initially without success (Table 3,X-XIII). Linear constructs attaching PRGPRP to a known cell-internalising amphiphilic sequence were also unsuccessful (Table 3,XIV and 3XV). […] Selective toxicity to these cancer cell lines, and not normal fibroblasts, was retained (Table 4).
All cell lines were from certified sources.

[3] = system: RT112 human bladder cancer cells; test: Time lapse photomicrography, RT112; assay type: cell-based; conditions: RT112, 200 μM THR53, Ham's F12 + 10% FCS
Procedure: (§1) Progressive morphological changes in dying H460 cells exposed to 200 μM THR53 [additional file 1], contrasted with progressive cell division in untreated H460 cells [additional file 2] are shown as videos. Immortalised MRC5-hTERT fibroblasts, were unaffected by exposure to 200 μM THR53 except for some generalised slowing of growth (Figure 5A), [additional file 3] as compared to control, untreated, MRC5-hTERT cells [additional file 4]. RT112 cells were more sensitive to THR53 than H460 cells and died within 30 - 40 hours as compared to 96 hours for H460 and the majority of other human cancer cell lines investigated.
(§2) Figure 5 Time Lapse Photomicrography of MRC5-hTERT, RT112 human bladder cancer and […] human non-small cell lung cancer following exposure toTHR53. Cells were incubated in Ham's F12 + 10% FCS (control medium) or medium + 200 μM THR53. Morphological changes of vacuolation + cellar swelling are seen in RT112 at 33 hours after exposure to THR53 and in H460 at 90 hours after exposure to THR53. There was no evidence of cell blebbing or fragmentation. (see also videos)

H460 cells = test: Cell cycle phase distribution (DNA histograms); assay type: cell-based, human
Text: (§3) Cell death, however, was not dependent on cell division in MCF-7, RT112 or H460. […] had no effect on cell cycle phase distribution in H460 cells (Figure 6B) and […] hexapeptide cancer cell killing was unrelated to endogenous levels of Cdk4 or Cyclin D1. […] A. Macroscopic appearances of cycling […]-treated MCF-7 human breast cancer cells in medium + 10% FCS (left hand panels) compared to the same cells held outside the cell cycle in medium + 0.1%FCS (right hand panel) B. […] C. Sequential Western blots of Cdk1 and Cdk4 expression in RT112 human bladder cancer cells at 0 - 10 days after exposure to 5 mM linear, end-capped, […].

[4] = system: H460 human non-small cell lung cancer cells; test: Time lapse photomicrography, H460; assay type: cell-based; conditions: H460, 200 μM THR53, Ham's F12 + 10% FCS
Procedure: as §1, §2

MCF7 breast cancer cells = test: Killing of cycling versus serum-deprived MCF-7 cells; assay type: cell-based, human
Text: as §3

[5] = system: MRC5-hTERT immortalised fibroblasts; test: Time lapse photomicrography, MRC5-hTERT; assay type: cell-based, human; conditions: 200 μM; except for some generalised slowing of growth
Procedure: as §1, §2

[6] = system: normal diploid human fibroblasts; test: In-vitro morphological cell viability screen, normal fibroblasts; assay type: cell-based; conditions: dose 200 μM
Procedure: A broad search for possible biological activity associated with the [sequence] peptide sequence was initially instituted by screening human bladder cancer cell lines for potential in-vitro morphological changes, compared to control cultures of normal diploid human fibroblasts at 4-8 passages from primary culture as controls. […] The peptides were dissolved, over a range of concentrations, in Ham's F12 + 10% FCS and introduced in 100 μL quantities to microwells containing 500 RT112 bladder cancer cells, or normal diploid human fibroblasts, in 200 μL of Ham's F12 + 10% FCS plated 24 hours earlier on 96 well plates.

## Cyc-[FPPRGPRPVKLALKLALK] (head to tail) [THR53, cyclic amphiphilic analogue, Cyc-[…]]
[1]
  plasma levels: low plasma levels which were not persistent
[2]; cyclic amphiphilic cassettes compared with the earlier PRGPRP peptides
  improvement in selective cancer cell cytotoxicity: fifty- to a hundred-fold improvement
[2]; for the majority of cell lines
  time at which cell killing reached a maximum: ≤ 4 days
[3]
  time at which morphological changes of vacuolation + cellular swelling are seen: 33 hours
  time to cell death: 30 to 40 h
H460 cells
  effect on cell cycle phase distribution: no effect
[4]
  time at which morphological changes of vacuolation + cellular swelling are seen: 90 hours
  time to cell death: 96 h
MCF7 breast cancer cells; medium + 0.1%FCS, cells held outside the cell cycle
  effect on serum-deprived MCF7 cells: no effect
MCF7 breast cancer cells; medium +10% FCS
  effect on cycling MCF-7 cells: killed
[5]
  effect on MRC5-hTERT fibroblasts, time lapse: unaffected
[6]
  Cell Viability Normal Diploid Fibroblasts: + + +
